Data: US20250215039A1, “NUCLEOSIDES FOR TREATING CANCER” (PRIMEFOUR THERAPEUTICS, INC., priority 2022, published 2025)
Like-named read-outs stand apart in the source and are kept apart here.

Test system: cancer cell lines
Experiment: Cancer cell proliferation activity (CellTiterGlo, 72 h)
Assay type: cell-based
Details: 72 h, 72 h, read-out: IC50
In short: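 Cells seeded overnight at 37 °C, then dosed with compound at 0.1% final DMSO and incubated 72 h at 37 °C (5% or 10% CO2 by medium).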

IC50 (5637 cell line (bladder)): > 50 µM | IC50 (AS49 cell line (lung)): > 50 µM | IC50 (CLS439 cell line (bladder)): > 50 µM | IC50 (HS729 cell line (muscle)): > 50 µM | IC50 (JAR cell line (placenta)): > 50 µM | IC50 (Homo sapiens, 786-0, 72 h, 786O cell line (kidney)): > 50 µM | IC50 (Homo sapiens, A2780, 72 h, A2780 cell line (ovary)): > 50 µM | IC50 (Homo sapiens, A-375, 72 h, A375 cell line (skin)): > 50 µM | IC50 (Homo sapiens, A-431, 72 h, A431 cell line (skin)): 2.6 µM | IC50 (Homo sapiens, ASPC1, 72 h, ASPC1 cell line (pancreas)): > 50 µM | IC50 (Homo sapiens, BT-20, 72 h, BT20 cell line (breast)): > 50 µM | IC50 (Homo sapiens, CAKI-1, 72 h, CAKI1 cell line (kidney)): > 50 µM | IC50 (Homo sapiens, COLO 205, 72 h, COLO205 cell line (colon)): > 50 µM | IC50 (Homo sapiens, COLO-678, 72 h, COLO678 cell line (colon)): > 50 µM | IC50 (Homo sapiens, Ca-Ski, CASKI cell line (cervical)): > 50 µM | IC50 (Homo sapiens, Caco-2, 72 h, CACO2 cell line (colon)): > 50 µM | IC50 (Homo sapiens, Calu-6, 72 h, CALU6 cell line (lung)): > 50 µM | IC50 (Homo sapiens, EFO-21, 72 h, EFO21 cell line (ovary)): > 50 µM | IC50 (Homo sapiens, EJ-28, 72 h, EJ28 cell line (bladder)): > 50 µM | IC50 (Homo sapiens, HCT-15, 72 h, HCT15 cell line (colon)): > 50 µM | IC50 (Homo sapiens, HCT-116, 72 h, HCT116 cell line (colon)): > 50 µM | IC50 (Homo sapiens, HEK293, 72 h, HEK293 cell line (kidney)): > 50 µM | IC50 (Homo sapiens, HL-60, 72 h, HL-60 cell line (hematological)): > 50 µM | IC50 (Homo sapiens, HT-29, 72 h, HT29 cell line (colon)): > 50 µM | IC50 (Homo sapiens, HT-1080, 72 h, HT1080 cell line (connective tissue)): > 50 µM | IC50 (Homo sapiens, HeLa, HELA cell line (cervical)): > 50 µM | IC50 (Homo sapiens, Hs-578T, HS578T cell line, breast): > 50 µM | IC50 (Homo sapiens, IGROV-1, 72 h, IGROV1 cell line (ovary)): > 50 µM | IC50 (Homo sapiens, IMR-90, 72 h, IMR90 cell line, lung): > 50 µM | IC50 (Homo sapiens, J82, 72 h, J82 cell line (bladder)): 4.88 µM | IC50 (Homo sapiens, JEG-3, 72 h, JEG3 cell line (placenta)): > 50 µM | IC50 (Homo sapiens, JIMT-1, 72 h, JIMT1 cell line (breast)): > 50 µM | IC50 (Homo sapiens, K562, 72 h, K-562 cell line (hematological)): > 50 µM | IC50 (Homo sapiens, Kasumi 1, 72 h, KASUMI-1 cell line (hematological)): > 50 µM | IC50 (Homo sapiens, L-363, 72 h, L-363 cell line (hematological)): > 50 µM | IC50 (Homo sapiens, MCF7, 72 h, MCF7 cell line (breast)): > 50 µM | IC50 (Homo sapiens, MDA-MB-231, 72 h, MDAMB231 cell line (breast)): > 50 µM | IC50 (Homo sapiens, MDA-MB-435, 72 h, MDAMB435 cell line (skin)): > 50 µM | IC50 (Homo sapiens, MDA-MB-468, 72 h, MDAMB468 cell line (breast)): > 50 µM | IC50 (Homo sapiens, MG-63, 72 h, MG63 cell line (bone)): > 50 µM | IC50 (Homo sapiens, MIA PaCa-2, 72 h, MIAPACA2 cell line (pancreas)): > 50 µM | IC50 (Homo sapiens, MV4-11, 72 h, MV4-11 cell line (hematological)): 0.38 µM | IC50 (Homo sapiens, NCI-H292, 72 h, NCIH292 cell line (lung)): > 50 µM | IC50 (Homo sapiens, NCI-H460, 72 h, NCIH460 cell line (lung)): 2.8 µM | IC50 (Homo sapiens, OVCAR-3, 72 h, OVCAR3 cell line (ovary)): > 50 µM | IC50 (Homo sapiens, OVCAR-4, 72 h, OVCAR4 cell line (ovary)): > 50 µM | IC50 (Homo sapiens, PANC-1, 72 h, PANC1 cell line (pancreas)): > 50 µM | IC50 (Homo sapiens, PC-3, 72 h, PC3 cell line (prostate)): > 50 µM | IC50 (Homo sapiens, Panc1005, 72 h, PANC1005 cell line (pancreas)): > 50 µM | IC50 (Homo sapiens, RD, RD cell line (muscle)): > 50 µM | IC50 (Homo sapiens, Ramos, RAMOS cell line (hematological)): > 50 µM | IC50 (Homo sapiens, SAOS-2, 72 h, SAOS2 cell line (bone)): > 50 µM | IC50 (Homo sapiens, SF-295, 72 h, SF295 cell line (brain)): > 50 µM | IC50 (Homo sapiens, SK-MEL-5, 72 h, SKMEL5 cell line, skin): > 50 µM | IC50 (Homo sapiens, SK-MEL-28, 72 h, SKMEL28 cell line (skin)): > 50 µM | IC50 (Homo sapiens, SK-N-AS, SKNAS cell line (brain)): > 50 µM | IC50 (Homo sapiens, SK-N-SH, SKNSH cell line (brain)): > 50 µM | IC50 (Homo sapiens, SK-OV-3, 72 h, SKOV3 cell line (ovary)): > 50 µM | IC50 (Homo sapiens, SU-DHL10, 72 h, SU-DHL-10 cell line (hematological)): > 50 µM | IC50 (Homo sapiens, SW-620, 72 h, SW620 cell line (colon)): > 50 µM | IC50 (Homo sapiens, T-24, 72 h, T24 cell line (bladder)): 3.01 µM | IC50 (Homo sapiens, TE-671, 72 h, TE671 cell line (muscle)): > 50 µM | IC50 (Homo sapiens, U2OS, U2OS cell line (bone)): > 50 µM | IC50 (Homo sapiens, UMUC3, 72 h, UMUC3 cell line (bladder)): > 50 µM | IC50 (Homo sapiens, UO-31, 72 h, UO31 cell line (kidney)): > 50 µM | IC50 (MT-3, 72 h, MT3 cell line (breast)): 3.77 µM | IC50 (NCI-H358M, NCIH358M cell line (lung)): > 50 µM | IC50 (PBMC, PBMC (hematological)): > 50 µM
SMILES: Cc1cn([C@H]2C[C@H](O)[C@@](C#N)(CO)O2)c(=O)[nH]c1=O [Cpd. No. 123, (2R,3S,5R)-3-hydroxy-2-(hydroxymethyl)-5-(5-methyl-2,4-dioxo-3,4-dihydropyrimidin-1(2H)-yl)tetrahydrofuran-2-carbonitrile]
